Assay results published in patent publication US12371439B2, “Crystalline form B of tetrahydrothienopyridine compound, preparation method, composition and application thereof” (Chengdu Shibeikang Biomedical Technology Co. Ltd., priority 2019, dated 2025).

Experiment: Stability investigation of the crystalline forms (HPLC purity, samples placed open and flat)
Type: physicochemical
Description: The crystalline forms of the compound of formula I obtained from each example and each comparative preparation example were analyzed by HPLC.
Instrument and equipment: Agilent-1100 High Performance Liquid Chromatograph;
Chromatographic conditions and system suitability test: octadecylsilane-bonded silica gel was used as a filler; water (pH adjusted to 3.8 with phosphoric acid):acetonitrile (45:55) was used as a mobile phase; detection wavelength was 220 nm; theoretical tower plate number should not be less than 2000; the resolution should not be less than 2.0; and the resolution from other adjacent impurity peaks should meet the requirements.
Test solution: an appropriate amount of the compound obtained from each example was accurately weighed, dissolved in anhydrous ethanol, and diluted quantitatively to prepare a solution containing about 1 mg compound per 1 ml solution as the test solution.
Reference solution: 1 ml of reference solution of the compound of formula I was accurately measured, and placed into a 100 ml volumetric flask, diluted with anhydrous ethanol to the scale, and shaken well to obtain the reference solution. Reference substance: calibrated standard substance of the compound of formula I provided by Chengdu Shibeikang Biomedical Technology Co., Ltd.
Determination method: according to General Chapter 0512 High Performance Liquid Chromatography in Chinese Pharmacopoeia (2015 Edition) Volume IV, 10 μl of the test solution and 10 μl of the reference solution were accurately measured respectively, and injected into the liquid chromatograph to record chromatograms.
Samples of the crystalline form B from each Example and the crystalline form from each comparative preparation example were placed in an open and flat way to investigate 5-day stability and 10-day stability of the samples under the conditions of light (4500 Lux), heating at 40° C. and 60° C. and high humidity of 75% and 90%, respectively. The detection was carried out according to the determination method in Test 1, and HPLC purity detection results were shown in the table below.

Compound	HPLC purity Day 0 (%) (heating at 40° C.)	HPLC purity Day 5 (%) (heating at 40° C.)	HPLC purity Day 10 (%) (heating at 40° C.)	HPLC purity Day 0 (%) (heating at 60° C.)	HPLC purity Day 5 (%) (heating at 60° C.)	HPLC purity Day 10 (%) (heating at 60° C.)	HPLC purity Day 0 (%) (high humidity of 90%)	HPLC purity Day 5 (%) (high humidity of 90%)	HPLC purity Day 10 (%) (high humidity of 90%)	HPLC purity Day 0 (%) (light (4500 Lux))	HPLC purity Day 5 (%) (light (4500 Lux))	HPLC purity Day 10 (%) (light (4500 Lux))
COC(=O)[C@H](c1ccccc1Cl)N1CC[C@@H]2SC(=O)C=C2C1 (racemic) [Comparative preparation example 1, methyl (S)-2-(2-chlorophenyl)-2-((S)-2-oxo-2,6,7,7a-tetrahydrothieno[3,2-c]pyridin-5(4H)-yl)acetate, reference compound]	96.89	96.31	95.35	96.89	95.45	94.37	96.89	96.75	96.69	96.89	96.80	96.75
COC(=O)[C@H](c1ccccc1Cl)N1CC[C@@H]2SC(=O)C=C2C1 (racemic) [Comparative preparation example 2, methyl (S)-2-(2-chlorophenyl)-2-((S)-2-oxo-2,6,7,7a-tetrahydrothieno[3,2-c]pyridin-5(4H)-yl)acetate, reference compound]	96.43	96.01	94.78	96.43	95.23	93.89	96.43	96.33	96.23	96.43	96.35	96.27
COC(=O)[C@H](c1ccccc1Cl)N1CC[C@@H]2SC(=O)C=C2C1 (racemic) [Comparative preparation example 3, methyl (S)-2-(2-chlorophenyl)-2-((S)-2-oxo-2,6,7,7a-tetrahydrothieno[3,2-c]pyridin-5(4H)-yl)acetate, reference compound]	97.73	97.22	96.13	97.73	96.60	95.23	97.73	97.66	97.58	97.73	97.70	97.65
COC(=O)[C@H](c1ccccc1Cl)N1CC[C@@H]2SC(=O)C=C2C1 [Example 1, methyl (S)-2-(2-chlorophenyl)-2-((S)-2-oxo-2,6,7,7a-tetrahydrothieno[3,2-c]pyridin-5(4H)-yl)acetate]	99.82	99.82	99.81	99.82	99.79	99.77	99.82	99.82	99.81	99.82	99.82	99.82
COC(=O)[C@H](c1ccccc1Cl)N1CC[C@@H]2SC(=O)C=C2C1 [Example 2, methyl (S)-2-(2-chlorophenyl)-2-((S)-2-oxo-2,6,7,7a-tetrahydrothieno[3,2-c]pyridin-5(4H)-yl)acetate]	99.92	99.92	99.91	99.92	99.87	99.84	99.92	99.92	99.91	99.92	99.92	99.92
COC(=O)[C@H](c1ccccc1Cl)N1CC[C@@H]2SC(=O)C=C2C1 [Example 3, methyl (S)-2-(2-chlorophenyl)-2-((S)-2-oxo-2,6,7,7a-tetrahydrothieno[3,2-c]pyridin-5(4H)-yl)acetate]	99.94	99.93	99.93	99.94	99.90	99.88	99.94	99.94	99.94	99.94	99.94	99.94
COC(=O)[C@H](c1ccccc1Cl)N1CC[C@@H]2SC(=O)C=C2C1 [Example 4, methyl (S)-2-(2-chlorophenyl)-2-((S)-2-oxo-2,6,7,7a-tetrahydrothieno[3,2-c]pyridin-5(4H)-yl)acetate]	99.89	99.89	99.88	99.89	99.87	99.86	99.89	99.89	99.89	99.89	99.89	99.89
COC(=O)[C@H](c1ccccc1Cl)N1CC[C@@H]2SC(=O)C=C2C1 [Example 5, methyl (S)-2-(2-chlorophenyl)-2-((S)-2-oxo-2,6,7,7a-tetrahydrothieno[3,2-c]pyridin-5(4H)-yl)acetate]	99.87	99.87	99.87	99.87	99.85	99.85	99.87	99.87	99.86	99.87	99.87	99.86
COC(=O)[C@H](c1ccccc1Cl)N1CC[C@@H]2SC(=O)C=C2C1 [Example 6, methyl (S)-2-(2-chlorophenyl)-2-((S)-2-oxo-2,6,7,7a-tetrahydrothieno[3,2-c]pyridin-5(4H)-yl)acetate]	99.91	99.91	99.90	99.91	99.89	99.88	99.91	99.91	99.90	99.91	99.91	99.90
COC(=O)[C@H](c1ccccc1Cl)N1CC[C@@H]2SC(=O)C=C2C1 [Example 7, methyl (S)-2-(2-chlorophenyl)-2-((S)-2-oxo-2,6,7,7a-tetrahydrothieno[3,2-c]pyridin-5(4H)-yl)acetate]	99.88	99.88	99.88	99.88	99.85	99.84	99.88	99.88	99.87	99.88	99.88	99.87
